Earlier results on one compound are cited in US20240293435A1, “Methods and Compositions for Treating Human Disorders Using D-Cycloserine and a Psychedelic Agent” (William & Mary, priority 2023, published 2024).

In data set [1] the test system is Alzheimer's Disease.
Data set [2] concerns Mycobacterium tuberculosis strains. To be noted: typical Mycobacterium tuberculosis strains.

On to `N[C@@H]1CON=C1O` [DCS, 3-Isoxazolidinone, 4-amino-, (4R)-(9CI)], for which the “benefit on Alzheimer's Disease” value in data set [1] (daily administration of 100 mg (Tsai et al. 1999)) is listed as “positive benefit”. For the same compound, the “benefit for treatment of Alzheimer's Disease” value in data set [1] (up to 50 mg daily dosing, multi-center 410-patient trial (Fakouhi et al. 1995)) is reported as “did not have a significant benefit”. Besides, the “minimum inhibitory concentrations (MIC) in vitro” value in data set [2] is 6 to 25 µg/mL. For the same compound, the “serum concentrations generally maintained” value (dose of 500 mg/day, chronic treatment) was 25000 to 30000 ng/mL. For the same compound, for the setting “oral capsules”, the half-life was 10 h and the “time to peak serum concentrations after dosing” value is 3 to 8 h.

Broadly, the half-life is the time needed for the level to fall by half in the phase considered.
